Earlier results, collected in US20210236523A1, “P[…] FOR HEADACHE DISORDERS” (priority 2020, published 2021).
“Also recorded” adds a separate entry of the source.

Key:
cluster headache = settings: et al., cited from earlier work
5-HT2A = 5-HT2A (Homo sapiens, UniProt P28223); settings: cited from earlier work
5-HT2B = 5-HT2B (Homo sapiens, UniProt P41595); settings: cited from earlier work
5-HT1 = settings: cited from earlier work
dopamine receptor = settings: cited from earlier work

5-HT2A, sequence (P28223 whole entry): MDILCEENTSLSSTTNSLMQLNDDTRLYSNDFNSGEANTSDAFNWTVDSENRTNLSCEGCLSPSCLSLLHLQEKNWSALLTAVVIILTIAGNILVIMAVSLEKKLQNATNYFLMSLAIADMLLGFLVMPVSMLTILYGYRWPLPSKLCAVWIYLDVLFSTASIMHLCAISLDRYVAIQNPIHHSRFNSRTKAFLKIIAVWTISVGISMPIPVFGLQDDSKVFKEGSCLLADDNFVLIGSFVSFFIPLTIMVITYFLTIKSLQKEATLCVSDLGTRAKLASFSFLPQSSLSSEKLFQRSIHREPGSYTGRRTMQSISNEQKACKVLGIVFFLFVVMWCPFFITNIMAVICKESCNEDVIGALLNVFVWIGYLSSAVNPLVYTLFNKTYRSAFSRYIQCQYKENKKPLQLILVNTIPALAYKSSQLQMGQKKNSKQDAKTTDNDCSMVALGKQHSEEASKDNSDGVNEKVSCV
5-HT2B, sequence (P41595 whole entry, species assumed): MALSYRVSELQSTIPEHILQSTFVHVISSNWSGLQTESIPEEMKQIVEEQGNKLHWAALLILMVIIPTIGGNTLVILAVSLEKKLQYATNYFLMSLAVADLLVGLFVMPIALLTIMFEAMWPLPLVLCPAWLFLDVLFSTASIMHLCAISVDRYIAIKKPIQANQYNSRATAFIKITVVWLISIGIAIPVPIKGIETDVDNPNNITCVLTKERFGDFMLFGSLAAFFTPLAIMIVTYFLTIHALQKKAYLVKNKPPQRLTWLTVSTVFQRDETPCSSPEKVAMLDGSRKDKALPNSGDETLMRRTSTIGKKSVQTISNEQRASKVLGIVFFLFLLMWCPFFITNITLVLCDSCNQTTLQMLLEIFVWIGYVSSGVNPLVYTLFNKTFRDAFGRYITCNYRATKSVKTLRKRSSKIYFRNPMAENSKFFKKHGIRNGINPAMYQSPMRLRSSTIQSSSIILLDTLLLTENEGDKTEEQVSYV

CCN(CC)C(=O)[C@@H]1C=C2c3cccc4[nH]cc(c34)C[C@H]2N(C)C1 [LSD, lysergic acid diethylamide]
reported effects in cluster headache (cluster headache; Sewell, 2006, Schindler et al., 2015): stop acute cluster attacks, terminate cluster cycles, and induce and prolong remission from cluster headache

CCN(CC)C(=O)[C@@H]1C=C2c3cccc4[nH]c(Br)c(c34)C[C@H]2N(C)C1 [BOL-148, 2-bromo-lysergic acid diethylamide]
effect on cluster headache cycle and attacks (cluster headache; three single oral doses of 30 μg/kg, Karst, 2010): either break a cluster headache cycle or considerably improve the frequency and intensity of attacks

CN(C)CCc1c[nH]c2cccc(O)c12 [psilocin]
affinity for 5-HT2A (5-HT2A): high affinity; also recorded: modest affinity | affinity for 5-HT2B (5-HT2B): high affinity | affinity for 5-HT1 (5-HT1): low affinity | effect on the dopamine receptor (dopamine receptor): no effect
